Experimental data published in patent publication US8445674B2, “Heterocyclyl compounds” (Hoffmann-La Roche Inc, priority 2009, dated 2013).

molecular target: T1, human chemokine receptor 2 isoform B (Homo sapiens, UniProt P41597); test: Calcium mobilization assay (FLIPR, antagonist activity against MCP-1); assay type: cell-based; conditions: Ca mobilisation assay, CHOK1-CCR2B-A5 cells, inhibition of calcium increase induced by 20 nM MCP-1
T1 construct: host or cells: CHOK1-CCR2B-A5 cells (CHO-K1)
T1 sequence (P41597 1-360 isoform P41597-2): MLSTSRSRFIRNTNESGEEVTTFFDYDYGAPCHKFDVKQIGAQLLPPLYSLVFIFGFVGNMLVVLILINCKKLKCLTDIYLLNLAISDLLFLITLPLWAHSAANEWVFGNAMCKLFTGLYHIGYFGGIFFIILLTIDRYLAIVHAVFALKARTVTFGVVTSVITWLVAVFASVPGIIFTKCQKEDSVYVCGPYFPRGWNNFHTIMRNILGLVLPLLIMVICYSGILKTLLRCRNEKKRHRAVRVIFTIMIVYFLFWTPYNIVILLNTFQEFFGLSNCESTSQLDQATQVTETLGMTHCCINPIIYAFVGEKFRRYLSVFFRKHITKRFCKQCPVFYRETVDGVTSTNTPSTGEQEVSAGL
Method in brief: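 CHOK1 cells stably overexpressing human CCR2B, loaded with 4 μM Fluo-4 for 2 h at 30° C, compounds added and agonist signal read by FLIPR for 80 s. After 20-30 min at 30° C, 20 nM MCP-1 was added and fluorescence read again. IC50 is 50% inhibition of specific calcium increase (max minus basal).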

SMILES	IC50
COC(=O)C(CC(=O)N1C[C@@H](C)C[C@H](O)C1)N1CCN(C(=O)/C=C/c2ccc(Cl)c(Cl)c2)CCC1=O (stereo partly drawn) [Example 9, (R,S)-2-{4-[(E)-3-(3,4-Dichloro-phenyl)-acryloyl]-7-oxo-[1,4]diazepan-1-yl}-4-((3S,5S)-3-hydroxy-5-methyl-piperidin-1-yl)-4-oxo-butyric acid methyl ester]	2350 nM
C[C@H]1C(=O)N(CCCC(=O)N2CCC3(CC3)[C@H](O)C2)CCN1c1ccc(C(F)(F)F)c(Cl)c1 [Example 60, (S)-4-(3-chloro-4-trifluoromethyl-phenyl)-1-[4-((S)-4-hydroxy-6-aza-spiro[2.5]oct-6-yl)-4-oxo-butyl]-3-methyl-piperazin-2-one]	5 nM
C[C@H]1C(=O)N(CCCC(=O)N2CCC(C)(O)CC2)CCN1C(=O)Nc1cccc(Cl)c1 [Example 105, (S)-4-[4-(4-Hydroxy-4-methyl-piperidin-1-yl)-4-oxo-butyl]-2-methyl-3-oxo-piperazine-1-carboxylic acid (3-chloro-phenyl)-amide]	3410 nM
C[C@@H]1CN(CCCC(=O)N2CCC3(CC3)[C@H](O)C2)C(=O)C=CN1c1ccc(C(F)(F)F)c(Cl)c1 [Example 65, (R)-1-(3-Chloro-4-trifluoromethyl-phenyl)-4-[4-((S)-4-hydroxy-6-aza-spiro[2.5]oct-6-yl)-4-oxo-butyl]-2-methyl-1,2,3,4-tetrahydro-[1,4]diazepin-5-one]	610 nM
C[C@H]1C(=O)N(CCCC(=O)N2CCC(C)(C)[C@H](O)C2)CCN1C(=O)Nc1ccc(Cl)c(Cl)c1 [Example 38, (S)-4-[4-((S)-3-hydroxy-4,4-dimethyl-piperidin-1-yl)-4-oxo-butyl]-2-methyl-3-oxo-piperazine-1-carboxylic acid (3,4-dichloro-phenyl)-amide]	21.9 nM
O=C(/C=C/c1ccc(Cl)c(Cl)c1)N1CCC(=O)N(CCC(=O)N2CCCC(CO)C2)CC1 (racemic) [Example 68, (rac)-1-[(E)-3-(3,4-Dichloro-phenyl)-acryloyl]-4-[3-(3-hydroxymethyl-piperidin-1-yl)-3-oxo-propyl]-[1,4]diazepan-5-one]	758 nM
COC(=O)C(CC(=O)N1CCC2(CC2)[C@H](O)C1)N1CCN(C(=O)/C=C/c2ccc(Cl)c(Cl)c2)CCC1=O (stereo partly drawn) [Example 7, (R,S)-2-{4-[(E)-3-(3,4-Dichloro-phenyl)-acryloyl]-7-oxo-[1,4]diazepan-1-yl}-4-((S)-4-hydroxy-6-aza-spiro[2.5]oct-6-yl)-4-oxo-butyric acid methyl ester]	453 nM

The remaining compounds from weak to strong by IC50, led by results:

IC50	SMILES
1040 nM	C[C@H]1C(=O)N(CCC(=O)N2CCC(C)(O)CC2)CCN1C(=O)Nc1ccc(Cl)c(Cl)c1 [Example 18, (S)-4-[3-(4-Hydroxy-4-methyl-piperidin-1-yl)-3-oxo-propyl]-2-methyl-3-oxo-piperazine-1-carboxylic acid (3,4-dichloro-phenyl)-amide]
62.2 nM	C[C@H]1C(=O)N(CCC(O)C(=O)N2CCC3(CC3)[C@H](O)C2)CCN1C(=O)Nc1ccc(C(F)(F)F)c(C(F)(F)F)c1 (stereo partly drawn) [Example 135, (S)-4-[(R,S)-3-Hydroxy-4-((S)-4-hydroxy-6-aza-spiro[2.5]oct-6-yl)-4-oxo-butyl]-2-methyl-3-oxo-piperazine-1-carboxylic acid (3,4-bis-trifluoromethyl-phenyl)-amide]
30.5 nM	C[C@H]1C(=O)N(CCCC(=O)N2CCC3(CC3)[C@H](O)C2)[C@@H](C(N)=O)CN1C(=O)Nc1ccc(C(F)(F)F)c(Cl)c1 [Example 148, (3R,6S)—N1-(3-chloro-4-(trifluoromethyl)phenyl)-4-(4-((S)-4-hydroxy-6-azaspiro[2.5]octan-6-yl)-4-oxobutyl)-6-methyl-5-oxopiperazine-1,3-dicarboxamide]
5.8 nM	C[C@H]1C(=O)N(C[C@H](O)CC(=O)N2CCC3(CC3)[C@H](O)C2)CCN1C(=O)Nc1ccc(C(F)(F)F)c(C(F)(F)F)c1 [Example 49, (S)-4-[(R)-2-hydroxy-4-((S)-4-hydroxy-6-aza-spiro[2.5]oct-6-yl)-4-oxo-butyl]-2-methyl-3-oxo-piperazine-1-carboxylic acid (3,4-bis-trifluoromethyl-phenyl)-amide]
